Experimental data from the NIST ThermoML archive (doi:10.1021/je900759f).

Assay: molar heat capacity at constant pressure
Settings: 101.33 kPa, Crystal, Vacuum adiabatic calorimetry

O=C([O-])c1ccccc1C(=O)O.[K+] [potassium 2-carboxybenzoate]
Settings	molar heat capacity at constant pressure [J/K/mol]
78.74 K	81.22
81.08 K	82.76
83.42 K	85
85.62 K	86.29
88.11 K	88.06
90.01 K	90.07
92.06 K	91.25
94.25 K	92.66
96.3 K	94.19
98.21 K	95.73
100.26 K	97.26
102.01 K	98.56
104.21 K	100.09
105.82 K	101.39
107.72 K	102.68
109.48 K	103.75
111.23 K	104.92
112.99 K	106.1
114.45 K	107.52
116.5 K	108.7
118.55 K	109.99
120.9 K	111.65
122.65 K	112.71
126.02 K	114.95
128.9 K	117.28
131.81 K	119.26
134.65 K	120.84
137.63 K	123.15
140.07 K	124.62
143.44 K	126.5
146.3 K	128.75
149.29 K	130.28
152.07 K	132.04
155.1 K	134.02
158.03 K	135.88
161.04 K	137.98
163.86 K	139.4
166.86 K	141.12
169.72 K	142.95
172.65 K	144.78
175.6 K	146.73
178.52 K	148.14
181.46 K	150.06
185.51 K	152.18
189.58 K	154.71
192.49 K	156.69
195.39 K	157.97
198.33 K	160.11
201.39 K	161.41
204.34 K	163.34
207.27 K	164.59
210.19 K	166.59
213.12 K	168.36
216.13 K	169.91
219.11 K	171.34
222.05 K	173.08
224.97 K	174.49
228.05 K	176.26
230.83 K	177.91
233.76 K	178.97
236.83 K	180.98
239.77 K	182.23
243.54 K	184.12
247.46 K	186.25
250.44 K	188.14
253.42 K	189.68
256.45 K	190.76
259.37 K	192.3
262.36 K	193.82
265.34 K	195.71
268.16 K	196.89
271.14 K	198.67
274.12 K	200.21
277.08 K	201.26
280.08 K	203.28
283.06 K	204.58
286.04 K	205.65
289.09 K	207.51
292.02 K	208.57
294.94 K	210.1
298.02 K	211.04
300.8 K	213.17
303.87 K	214.11
306.8 K	215.52
309.73 K	216.94
312.51 K	218.12
315.58 K	219.65
318.36 K	221.3
321.29 K	222.01
324.37 K	223.43
327.29 K	224.96
330.37 K	226.61
333.44 K	228.14
336.37 K	229.67
339.3 K	230.85
342.37 K	232.15
345.3 K	233.33
348.37 K	234.39
351.3 K	236.4
354.23 K	237.46
357.16 K	239.23
360.08 K	240.52
363.01 K	241.35
365.94 K	243
368.87 K	243.71
371.83 K	244.81
374.87 K	246.77
377.94 K	248.3
380.93 K	249.42
383.91 K	250.96
386.89 K	252.02
390.03 K	253.44
393.01 K	254.98
395.98 K	255.93
